Reference: ChEMBL document CHEMBL1909046, “DrugMatrix in vitro pharmacology data”
pIC50, pKi: −log10 of the molar value.

Tests used:
[1] = target: T1, Alpha-1D adrenergic receptor (Homo sapiens, UniProt P25100); type: cell membranes, HEK293, Membrane; details: for IC50: hek293; on all read-outs here: in other assays of this panel Not Active means under 50% inhibition at 10 µM
T1 sequence (P25100 whole entry): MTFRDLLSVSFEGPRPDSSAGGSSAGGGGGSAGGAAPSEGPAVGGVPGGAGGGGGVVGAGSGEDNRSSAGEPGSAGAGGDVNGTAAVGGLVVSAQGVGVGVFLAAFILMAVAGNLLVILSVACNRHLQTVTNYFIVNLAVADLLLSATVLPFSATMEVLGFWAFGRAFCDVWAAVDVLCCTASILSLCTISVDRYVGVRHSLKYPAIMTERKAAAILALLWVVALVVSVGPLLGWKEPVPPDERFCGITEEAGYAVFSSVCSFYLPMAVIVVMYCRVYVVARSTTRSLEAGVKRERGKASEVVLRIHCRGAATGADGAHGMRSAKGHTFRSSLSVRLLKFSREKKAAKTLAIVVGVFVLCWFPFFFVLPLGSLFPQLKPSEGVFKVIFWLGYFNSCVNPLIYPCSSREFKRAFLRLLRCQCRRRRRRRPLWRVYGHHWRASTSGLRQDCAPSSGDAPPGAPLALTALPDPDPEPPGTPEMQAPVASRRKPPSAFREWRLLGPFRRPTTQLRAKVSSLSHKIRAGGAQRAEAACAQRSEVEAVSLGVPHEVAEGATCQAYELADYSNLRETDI

[2] = DRUGMATRIX: Calcium Channel Type L, Dihydropyridine radioligand binding (ligand: [3H] Nitrendipine); type: cell membranes, Rattus norvegicus, Wistar, Cerebral cortex, Membrane; details: Not Active = under 50% inhibition at 10 µM
Carbonic anhydrase 2 = Carbonic anhydrase 2 (Homo sapiens, UniProt P00918); test: DRUGMATRIX: Carbonic Anhydrase II enzyme inhibition (substrate: 4-Nitrophenyl acetate (4-NPA)); type: tissue-based, Erythrocyte; details: erythrocyte; Not Active = under 50% inhibition at 10 µM
[3] = target: C-C chemokine receptor type 5 (Homo sapiens, UniProt P51681); type: cell membranes, Membrane; details: hek293; further: in other assays of this panel Not Active means under 50% inhibition at 10 µM
Progesterone receptor = target: T2, Progesterone receptor (Bos taurus, UniProt Q690N0); test: DRUGMATRIX: Progesterone radioligand binding (ligand: [3H] R-5020); type: tissue-based, Uterus; details: Not Active = under 50% inhibition at 10 µM
T2 sequence (Q690N0 whole entry): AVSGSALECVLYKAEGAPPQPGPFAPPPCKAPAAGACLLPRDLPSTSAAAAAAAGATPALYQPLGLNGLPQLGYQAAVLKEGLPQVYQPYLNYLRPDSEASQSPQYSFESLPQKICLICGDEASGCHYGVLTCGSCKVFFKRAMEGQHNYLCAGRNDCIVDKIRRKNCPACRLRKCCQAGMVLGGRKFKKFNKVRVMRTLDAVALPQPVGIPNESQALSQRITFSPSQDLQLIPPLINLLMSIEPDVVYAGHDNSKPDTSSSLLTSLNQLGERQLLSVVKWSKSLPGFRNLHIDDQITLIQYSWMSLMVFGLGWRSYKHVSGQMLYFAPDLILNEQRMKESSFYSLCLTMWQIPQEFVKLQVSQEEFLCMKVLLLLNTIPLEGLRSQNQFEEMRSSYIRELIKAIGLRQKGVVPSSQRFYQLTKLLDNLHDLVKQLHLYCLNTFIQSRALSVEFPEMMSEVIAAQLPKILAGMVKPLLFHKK

[4] = target: 5-hydroxytryptamine receptor 1B (Rattus norvegicus, UniProt P28564); type: cell membranes, Wistar, Cerebral cortex, Membrane; further: in other assays of this panel Not Active means under 50% inhibition at 10 µM
5-hydroxytryptamine receptor 1B, sequence (P28564 whole entry): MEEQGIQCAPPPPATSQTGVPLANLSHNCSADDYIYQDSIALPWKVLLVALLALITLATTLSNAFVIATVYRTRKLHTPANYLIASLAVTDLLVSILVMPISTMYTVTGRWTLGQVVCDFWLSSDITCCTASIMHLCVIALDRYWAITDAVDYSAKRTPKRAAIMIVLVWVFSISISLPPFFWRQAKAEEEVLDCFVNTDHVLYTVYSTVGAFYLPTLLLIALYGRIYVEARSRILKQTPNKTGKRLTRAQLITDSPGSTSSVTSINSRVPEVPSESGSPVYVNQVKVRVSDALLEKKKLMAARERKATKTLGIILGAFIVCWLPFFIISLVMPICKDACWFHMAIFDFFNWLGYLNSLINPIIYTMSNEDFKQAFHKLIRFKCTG

C-C chemokine receptor type 5, sequence (P51681 whole entry): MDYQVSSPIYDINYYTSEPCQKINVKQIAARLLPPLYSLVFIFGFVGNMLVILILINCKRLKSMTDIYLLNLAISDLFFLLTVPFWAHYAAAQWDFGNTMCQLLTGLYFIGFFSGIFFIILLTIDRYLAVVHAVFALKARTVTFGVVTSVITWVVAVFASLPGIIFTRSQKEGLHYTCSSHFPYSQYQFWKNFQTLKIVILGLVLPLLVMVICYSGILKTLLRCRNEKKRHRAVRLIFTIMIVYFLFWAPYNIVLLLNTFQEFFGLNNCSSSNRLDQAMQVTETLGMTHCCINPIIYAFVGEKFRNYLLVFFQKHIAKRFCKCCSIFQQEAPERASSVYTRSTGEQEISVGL

Row | Compound | IC50 [1] | IC50 [2] | Ki [2] | IC50 (Carbonic anhydrase 2) | IC50 [3] | IC50 (Progesterone receptor) | IC50 [4] | pIC50 (Progesterone receptor; read-out: IC50) | pKi (Progesterone receptor; read-out: Ki) | pIC50 ([2]; read-out: IC50) | pKi ([2]; read-out: Ki) | pIC50 ([1]; read-out: IC50) | pKi ([1]; read-out: Ki)
1 | CCC(=O)O[C@H]1[C@H](O[C@@H]2[C@@H](C)[C@H](O[C@H]3C[C@@](C)(OC)[C@@H](O)[C@H](C)O3)[C@@H](C)C(=O)O[C@H](CC)[C@@](C)(O)[C@H](O)[C@@H](C)C(=O)[C@H](C)C[C@@]2(C)O)O[C@H](C)C[C@@H]1N(C)C [ERYTHROMYCIN PROPIONATE] | Not Active | Not Active | Not Active | Not Active | Not Active | Not Active | Not Active |  |  |  |  |  | 
2 | C=C(CC)C(=O)c1ccc(OCC(=O)O)c(Cl)c1Cl [ETHACRYNIC ACID] | Not Active | Not Active | Not Active | Not Active | Not Active | Not Active | Not Active |  |  |  |  |  | 
3 | C#C[C@]1(O)CC[C@H]2[C@@H]3CCc4cc(O)ccc4[C@H]3CC[C@@]21C [ETHINYL ESTRADIOL] | Not Active | Not Active | Not Active | Not Active | Not Active |  | Not Active | 5.97 | 6.86 |  |  |  | 
4 | OCCO [ETHYLENE GLYCOL] | Not Active | Not Active | Not Active | Not Active | Not Active | Not Active | Not Active |  |  |  |  |  | 
5 | CC(=O)OCC(CCn1cnc2cnc(N)nc21)COC(C)=O [FAMCICLOVIR] | Not Active | Not Active | Not Active | Not Active | Not Active | Not Active | Not Active |  |  |  |  |  | 
6 | O=C(O)Cc1ccc(-c2ccccc2)cc1 [FELBINAC] | Not Active | Not Active | Not Active | Not Active | Not Active | Not Active | Not Active |  |  |  |  |  | 
7 | CCOC(=O)C1=C(C)NC(C)=C(C(=O)OC)C1c1cccc(Cl)c1Cl (stereo not given) [FELODIPINE] | Not Active |  |  | Not Active | Not Active | Not Active | Not Active |  |  | 10.09 | 10.28 |  | 
8 | Cc1cn[nH]c1 [FOMEPIZOLE] | Not Active | Not Active | Not Active | Not Active | Not Active | Not Active | Not Active |  |  |  |  |  | 
9 | NC[C@@H]1O[C@H](O[C@H]2[C@@H](O)[C@H](O[C@@H]3[C@@H](O)[C@H](N)C[C@H](N)[C@H]3O[C@H]3O[C@H](CN)[C@@H](O)[C@H](O)[C@H]3N)O[C@@H]2CO)[C@H](N)[C@@H](O)[C@@H]1O [FRAMYCETIN] | Not Active | Not Active | Not Active | Not Active | Not Active | Not Active | Not Active |  |  |  |  |  | 
10 | C[C@H]([C@](O)(Cn1cncn1)c1ccc(F)cc1F)S(C)(=O)=O [GENACONAZOLE] | Not Active | Not Active | Not Active | Not Active | Not Active | Not Active | Not Active |  |  |  |  |  | 
11 | Cc1cnc(C(=O)NCCc2ccc(S(=O)(=O)NC(=O)NC3CCCCC3)cc2)cn1 [GLIPIZIDE] | Not Active | Not Active | Not Active | Not Active | Not Active | Not Active | Not Active |  |  |  |  |  | 
12 | Cc1c(F)c(N2CCNC(C)C2)cc2c1c(=O)c(C(=O)O)cn2C1CC1 (stereo not given) [GREPAFLOXACIN] | Not Active | Not Active | Not Active | Not Active | Not Active | Not Active | Not Active |  |  |  |  |  | 
13 | COc1ccccc1OCC(O)CO (stereo not given) [GUAIFENESIN] | Not Active | Not Active | Not Active | Not Active | Not Active | Not Active | Not Active |  |  |  |  |  | 
14 | N=C(N)N/N=C/c1c(Cl)cccc1Cl [GUANABENZ] |  | Not Active | Not Active | Not Active | Not Active | Not Active | Not Active |  |  |  |  | 6.33 | 6.63
